Data reported in patent publication US7897592B2, “HIV integrase inhibitors” (priority 2005, dated 2011).

Biological target: T1, HIV-integrase (recombinant integrase) (Human immunodeficiency virus type 1 group M subtype B, UniProt P12497)
T1 construct: Recombinant integrase (0.26 ng) was incubated with the beads
Assay: HIV-Integrase Inhibition Activity (SPA bead strand-transfer assay)
Assay type: biochemical
Settings: biotin labeled substrate DNA on SPA beads, P33 labeled target DNA, read-out: Activity (IC50 against HIV-integrase)
Procedure: HIV-Integrase Inhibition Activity. To evaluate in-vitro activity against HIV-integrase, 5 pmole of biotin labeled substrate DNA was bound to 100 μg of Streptavidin coated PVT SPA beads (Amersham Pharmacia Biotech). Recombinant integrase (0.26 ng) was incubated with the beads for 90 min at 37° C. Unbound enzyme was removed by washing the complex followed by addition of inhibitors and 0.1 fmol of P33 labeled target DNA. The reaction was stopped by adding EDTA to a final concentration of 10 mM. Samples were counted in TopCountNXT (Packard) and the CPM was used as a measure of integration. The reaction condition was as described in A. Engelman and R. Craigie, J. Virol. 69, 5908-5911 (1995). The sequences of substrate and target DNA were described in Nucleic Acid Research 22, 1121-1122 (1994). Activity equal to A refers to a compound having IC50=0.002 to 0.10 μM while B and C denote compounds having IC50=0.1 to 1.0 μM and IC50≧1.0 μM respectively.

O=C(NCc1ccc(F)cc1)c1nc2n(c(=O)c1O)CCSC2 [Example 1, N-(4-fluorobenzyl)-3-hydroxy-4-oxo-4,6,7,9-tetrahydropyrimido[2,1-c][1,4]thiazine-2-carboxamide]
IC50: 2 to 100 nM

O=C(NCc1ccc(F)cc1)c1nc2n(c(=O)c1O)CCS(=O)(=O)C2 [Example 2, Pyrimido[2,1-c][1,4]thiazine-2-carboxamide, N-[(4-fluorophenyl)methyl]-4,6,7,9-tetrahydro-3-hydroxy-4-oxo-, 8,8-dioxide]
IC50: 100 to 1000 nM

CC1c2nc(C(=O)NCc3ccc(F)cc3)c(O)c(=O)n2CCS1(=O)=O (centres unmarked) [Example 3, Pyrimido[2,1-c][1,4]thiazine-2-carboxamide, N-[(4-fluorophenyl)methyl]-4,6,7,9-tetrahydro-3-hydroxy-9-methyl-4-oxo-, 8,8-dioxide]
IC50: 2 to 100 nM

CC1(C)c2nc(C(=O)NCc3ccc(F)cc3)c(O)c(=O)n2CCS1(=O)=O [Example 4, Pyrimido[2,1-c][1,4]thiazine-2-carboxamide, N-[(4-fluorophenyl)methyl]-4,6,7,9-tetrahydro-3-hydroxy-9,9-dimethyl-4-oxo-, 8,8-dioxide]
IC50: 2 to 100 nM

CC1(C)c2nc(C(=O)NCc3ccc(F)cc3-n3cncn3)c(O)c(=O)n2CCS1(=O)=O [Example 5, Pyrimido[2,1-c][1,4]thiazine-2-carboxamide, N-[[4-fluoro-2-(1H-1,2,4-triazol-1-yl)phenyl]methyl]-4,6,7,9-tetrahydro-3-hydroxy-9,9-dimethyl-4-oxo-, 8,8-dioxide]
IC50: 2 to 100 nM

Cc1ncn(-c2cc(F)ccc2CNC(=O)c2nc3n(c(=O)c2O)CCS(=O)(=O)C3(C)C)n1 [Example 6, Pyrimido[2,1-c][1,4]thiazine-2-carboxamide, N-[[4-fluoro-2-(3-methyl-1H-1,2,4-triazol-1-yl)phenyl]methyl]-4,6,7,9-tetrahydro-3-hydroxy-9,9-dimethyl-4-oxo-, 8,8-dioxide]
IC50: 2 to 100 nM

Cc1ncnn1-c1cc(F)ccc1CNC(=O)c1nc2n(c(=O)c1O)CCS(=O)(=O)C2(C)C [Example 7, Pyrimido[2,1-c][1,4]thiazine-2-carboxamide, N-[[4-fluoro-2-(5-methyl-1H-1,2,4-triazol-1-yl)phenyl]methyl]-4,6,7,9-tetrahydro-3-hydroxy-9,9-dimethyl-4-oxo-8,8-dioxide]
IC50: 2 to 100 nM

O=C(NCc1ccc(F)cc1)c1nc2n(c(=O)c1O)CCS(=O)(=O)C21CC1 [Example 8, Spiro[cyclopropane-1,9′(4′H)-pyrimido[2,1-c][1,4]thiazine]-2′-carboxamide, N-[(4-fluorophenyl)methyl]-6′,7′-dihydro-3′-hydroxy-4′-oxo-, 8′,8′-dioxide]
IC50: 2 to 100 nM

O=C(NCc1ccc(F)cc1-n1cncn1)c1nc2n(c(=O)c1O)CCS(=O)(=O)C21CC1 [Example 9, Spiro[cyclopropane-1,9′(4′H)-pyrimido[2,1-c][1,4]thiazine]-2′-carboxamide, N-[[4-fluoro-2-(1H-1,2,4-triazol-1-yl)phenyl]methyl]-6′,7′-dihydro-3′-hydroxy-4′-oxo-, 8′,8′-dioxide]
IC50: 2 to 100 nM

Cc1ncn(-c2cc(F)ccc2CNC(=O)c2nc3n(c(=O)c2O)CCS(=O)(=O)C32CC2)n1 [Example 10, Spiro[cyclopropane-1,9′(4′H)-pyrimido[2,1-c][1,4]thiazine]-2′-carboxamide, N-[[4-fluoro-2-(3-methyl-1H-1,2,4-triazol-1-yl)phenyl]methyl]-6′,7′-dihydro-3′-hydroxy-4′-oxo-, 8′,8′-dioxide]
IC50: 2 to 100 nM

Cc1ncnn1-c1cc(F)ccc1CNC(=O)c1nc2n(c(=O)c1O)CCS(=O)(=O)C21CC1 [Example 11, Spiro[cyclopropane-1,9′(4′H)-pyrimido[2,1-c][1,4]thiazine]-2′-carboxamide, N-[[4-fluoro-2-(5-methyl-1H-1,2,4-triazol-1-yl)phenyl]methyl]-6′,7′-dihydro-3′-hydroxy-4′-oxo-, 8′,8′-dioxide]
IC50: 2 to 100 nM

O=C(NCc1ccc(F)cc1)c1nc2n(c(=O)c1O)CCS(=O)(=O)C21CCCC1 [Example 12, Spiro[cyclopentane-1,9′(4′H)-pyrimido[2,1-c][1,4]thiazine]-2′-carboxamide, N-[(4-fluorophenyl)methyl]-6′,7′-dihydro-3′-hydroxy-4′-oxo-, 8′,8′-dioxide]
IC50: 2 to 100 nM

O=C(NCc1ccc(F)cc1-n1cncn1)c1nc2n(c(=O)c1O)CCS(=O)(=O)C21CCCC1 [Example 13, Spiro[cyclopentane-1,9′(4′H)-pyrimido[2,1-c][1,4]thiazine]-2′-carboxamide, N-[[4-fluoro-2-(1H-1,2,4-triazol-1-yl)phenyl]methyl]-6′,7′-dihydro-3′-hydroxy-4′-oxo-, 8′,8′-dioxide]
IC50: 2 to 100 nM

Cc1ncn(-c2cc(F)ccc2CNC(=O)c2nc3n(c(=O)c2O)CCS(=O)(=O)C32CCCC2)n1 [Example 14, Spiro[cyclopentane-1,9′(4′H)-pyrimido[2,1-c][1,4]thiazine]-2′-carboxamide, N-[[4-fluoro-2-(3-methyl-1H-1,2,4-triazol-1-yl)phenyl]methyl]-6′,7′-dihydro-3′-hydroxy-4′-oxo-, 8′,8′-dioxide]
IC50: 2 to 100 nM

Cc1ncnn1-c1cc(F)ccc1CNC(=O)c1nc2n(c(=O)c1O)CCS(=O)(=O)C21CCCC1 [Example 15, Spiro[cyclopentane-1,9′(4′H)-pyrimido[2,1-c][1,4]thiazine]-2′-carboxamide, N-[[4-fluoro-2-(5-methyl-1H-1,2,4-triazol-1-yl)phenyl]methyl]-6′,7′-dihydro-3′-hydroxy-4′-oxo-, 8′,8′-dioxide]
IC50: 2 to 100 nM

O=C(NCc1ccc(F)cc1)c1nc2n(c(=O)c1O)CCS(=O)(=O)C21CCOCC1 [Example 16, Spiro[4H-pyran-4,9′(4′H)-pyrimido[2,1-c][1,4]thiazine]-2′-carboxamide, N-[(4-fluorophenyl)methyl]-2,3,5,6,6′,7′-hexahydro-3′-hydroxy-4′-oxo-, 8′,8′-dioxide]
IC50: 2 to 100 nM

O=C(NCc1ccc(F)cc1-n1cncn1)c1nc2n(c(=O)c1O)CCS(=O)(=O)C21CCOCC1 [Example 17, Spiro[4H-pyran-4,9′(4′H)-pyrimido[2,1-c][1,4]thiazine]-2′-carboxamide, N-[[4-fluoro-2-(1H-1,2,4-triazol-1-yl)phenyl]methyl]-2,3,5,6,6′,7′-hexahydro-3′-hydroxy-4′-oxo-, 8′,8′-dioxide]
IC50: 2 to 100 nM

Cc1ncnn1-c1cc(F)ccc1CNC(=O)c1nc2n(c(=O)c1O)CCS(=O)(=O)C21CCOCC1 [Example 18, Spiro[4H-pyran-4,9′(4′H)-pyrimido[2,1-c][1,4]thiazine]-2′-carboxamide, N-[[4-fluoro-2-(5-methyl-1H-1,2,4-triazol-1-yl)phenyl]methyl]-2,3,5,6,6′,7′-hexahydro-3′-hydroxy-4′-oxo-, 8′,8′-dioxide]
IC50: 2 to 100 nM

O=C(NCc1ccc(F)cc1)c1nc2n(c(=O)c1O)CCCSC2 [Example 19, N-(4-Fluorobenzyl)-3-hydroxy-4-oxo-6,7,8,10-tetrahydro-4H-pyrimido[2,1-c][1,4]thiazepine-2-carboxamide]
IC50: 2 to 100 nM

CC1SCCCn2c1nc(C(=O)NCc1ccc(F)cc1)c(O)c2=O (centres unmarked) [Example 20, N-(4-Fluorobenzyl)-3-hydroxy-10-methyl-4-oxo-6,7,8,10-tetrahydro-4H-pyrimido[2,1-c][1,4]thiazepine-2-carboxamide]
IC50: 2 to 100 nM

O=C(NCc1ccc(F)cc1)c1nc2n(c(=O)c1O)CCCS(=O)(=O)C2 [Example 21, 6H-Pyrimido[2,1-c][1,4]thiazepine-2-carboxamide, N-[(4-fluorophenyl)methyl]-4,7,8,10-tetrahydro-3-hydroxy-4-oxo-, 9,9-dioxide]
IC50: 2 to 100 nM

CC1c2nc(C(=O)NCc3ccc(F)cc3)c(O)c(=O)n2CCCS1(=O)=O (centres unmarked) [Example 22, 6H-Pyrimido[2,1-c][1,4]thiazepine-2-carboxamide, N-[(4-fluorophenyl)methyl]-4,7,8,10-tetrahydro-3-hydroxy-10-methyl-4-oxo-, 9,9-dioxide]
IC50: 2 to 100 nM

CC1(C)c2nc(C(=O)NCc3ccc(F)cc3)c(O)c(=O)n2CCCS1(=O)=O [Example 23, 6H-Pyrimido[2,1-c][1,4]thiazepine-2-carboxamide, N-[(4-fluorophenyl)methyl]-4,7,8,10-tetrahydro-3-hydroxy-10,10-dimethyl-4-oxo-, 9,9-dioxide]
IC50: 2 to 100 nM

O=C(NCc1ccc(F)cc1)c1nc2n(c(=O)c1O)CCCS(=O)(=O)C21CC1 [Example 24, Spiro[cyclopropane-1,10′(4′H)-[6H]pyrimido[2,1-c][1,4]thiazepine]-2′-carboxamide, N-[(4-fluorophenyl)methyl]-7′,8′-dihydro-3′-hydroxy-4′-oxo-, 9′,9′-dioxide]
IC50: 2 to 100 nM

O=C(NCc1ccc(F)cc1)c1nc2n(c(=O)c1O)CCCS(=O)(=O)C21CCCC1 [Example 25, Spiro[cyclopentane-1,10′(4′H)-[6H]pyrimido[2,1-c][1,4]thiazepine]-2′-carboxamide, N-[(4-fluorophenyl)methyl]-7′,8′-dihydro-3′-hydroxy-4′-oxo-, 9′,9′-dioxide]
IC50: 2 to 100 nM

O=C(NCc1ccc(F)cc1)c1nc2n(c(=O)c1O)CCCS(=O)(=O)C21CCOCC1 [Example 26, Spiro[4H-pyran-4,10′(4′H)-[6H]pyrimido[2,1-c][1,4]thiazepine]-2′-carboxamide, N-[(4-fluorophenyl)methyl]-2,3,5,6,7′,8′-hexahydro-3′-hydroxy-4′-oxo-, 9′,9′-dioxide]
IC50: 2 to 100 nM
